Measured values published in ChEMBL document CHEMBL1201862, “PubChem BioAssay data set” (2004).
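Cultured in 96-well plates, cells were exposed to test compound for 48 hours across five concentrations. GI50 is the concentration that inhibits growth by half.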 Active and inactive are the calls of the source. Cut-off read from the data, not from the text of the source: active = GI50 up to about 1.1 µM and inactive = higher.

What was measured:
Assay in all cases: DTP human tumour cell line panel, 48 h
MOLT-4 = system: MOLT-4
SK-MEL-5 = system: SK-MEL-5
ACHN = system: ACHN
SF-539 = system: SF-539
LOX IMVI = system: LOX IMVI
DLD-1 = system: DLD-1
SNB-19 = system: SNB-19
OVCAR-4 = system: OVCAR-4
EKVX = system: EKVX
SW-620 = system: SW-620
OVCAR-3 = system: OVCAR-3
SK-OV-3 = system: SK-OV-3
SNB-75 = system: SNB-75
HOP-62 = system: HOP-62
CCRF-CEM = system: CCRF-CEM
K562 = system: K562
NCI-H522 = system: NCI-H522
Hs-578T = system: Hs-578T
MCF7 = system: MCF7
NCI/ADR-RES = system: NCI/ADR-RES

| Compound | GI50 (MOLT-4) | GI50 (SK-MEL-5) | GI50 (ACHN) | GI50 (SF-539) | GI50 (LOX IMVI) | GI50 (DLD-1) | GI50 (SNB-19) | GI50 (OVCAR-4) | GI50 (EKVX) | GI50 (SW-620) | GI50 (OVCAR-3) | GI50 (SK-OV-3) | GI50 (SNB-75) | GI50 (HOP-62) | GI50 (CCRF-CEM) | GI50 (K562) | GI50 (NCI-H522) | GI50 (Hs-578T) | GI50 (MCF7) | GI50 (NCI/ADR-RES) |
| --- | --- | --- | --- | --- | --- | --- | --- | --- | --- | --- | --- | --- | --- | --- | --- | --- | --- | --- | --- | --- |
| O=c1ccc2ccccc2c2ccccc12 | 3.78 µM (inactive) | 2.9 µM (inactive) | 3.97 µM (inactive) | 1.97 µM (inactive) | 1.91 µM (inactive) | 3.39 µM (inactive) | 2.82 µM (inactive) | 8.07 µM (inactive) | 17.3 µM (inactive) | 3.3 µM (inactive) | 3.4 µM (inactive) | 3.6 µM (inactive) | 2.94 µM (inactive) | 3.24 µM (inactive) | 3.2 µM (inactive) | 3.7 µM (inactive) | 4.37 µM (inactive) | – | – | – |
| CN1CCOC(c2ccccc2)O1 (stereo unspecified) | > 100 µM (inactive) | > 100 µM (inactive) | > 100 µM (inactive) | > 100 µM (inactive) | > 100 µM (inactive) | > 100 µM (inactive) | > 100 µM (inactive) | > 100 µM (inactive) | > 100 µM (inactive) | > 100 µM (inactive) | > 100 µM (inactive) | > 100 µM (inactive) | > 100 µM (inactive) | > 100 µM (inactive) | > 100 µM (inactive) | > 100 µM (inactive) | > 100 µM (inactive) | – | – | – |
| O=C(Nc1ccccc1-c1n[nH]c(S)nc1=O)C(F)(F)F | > 100 µM (inactive) | > 100 µM (inactive) | > 100 µM (inactive) | > 100 µM (inactive) | > 100 µM (inactive) | > 100 µM (inactive) | > 100 µM (inactive) | > 100 µM (inactive) | > 100 µM (inactive) | > 100 µM (inactive) | > 100 µM (inactive) | > 100 µM (inactive) | > 100 µM (inactive) | > 100 µM (inactive) | > 100 µM (inactive) | > 100 µM (inactive) | 64.3 µM (inactive) | – | – | – |
| CC1OC(CC(=O)O)Cc2c(O)c3c(c(O)c21)C(=O)C=C(C1=CC(=O)c2c(O)c4c(c(O)c2C1=O)CC(CC(=O)O)OC4C)C3=O (stereo unspecified) | 2.69 µM (inactive) | 16.4 µM (inactive) | 26.1 µM (inactive) | 19.1 µM (inactive) | 16.5 µM (inactive) | 12.7 µM (inactive) | > 100 µM (inactive) | 17.3 µM (inactive) | 13.5 µM (inactive) | 7.4 µM (inactive) | 27 µM (inactive) | > 100 µM (inactive) | 59.6 µM (inactive) | > 100 µM (inactive) | 2.75 µM (inactive) | 9.4 µM (inactive) | 6.25 µM (inactive) | – | – | – |
| COC[C@@H]1[C@H]2OC(C)(C)O[C@H]2C(=O)N1C(=O)c1ccc(OC)cc1 | > 100 µM (inactive) | > 100 µM (inactive) | > 100 µM (inactive) | > 100 µM (inactive) | > 100 µM (inactive) | > 100 µM (inactive) | > 100 µM (inactive) | > 100 µM (inactive) | > 100 µM (inactive) | > 100 µM (inactive) | > 100 µM (inactive) | > 100 µM (inactive) | > 100 µM (inactive) | > 100 µM (inactive) | > 100 µM (inactive) | > 100 µM (inactive) | > 71.8 µM (inactive) | – | – | – |
| O=c1[nH]c(=O)n(C2CC(O)C(CO)O2)cc1C#Cc1ccc(C(F)(F)F)cc1 (stereo unspecified) | > 100 µM (inactive) | > 100 µM (inactive) | > 100 µM (inactive) | > 100 µM (inactive) | > 100 µM (inactive) | > 100 µM (inactive) | > 100 µM (inactive) | > 100 µM (inactive) | 63.2 µM (inactive) | > 100 µM (inactive) | > 100 µM (inactive) | > 100 µM (inactive) | 61.5 µM (inactive) | > 100 µM (inactive) | > 100 µM (inactive) | > 100 µM (inactive) | > 100 µM (inactive) | – | – | – |
| COc1ccc2c(c1)C=C([N+](=O)[O-])C(C1OC(C)(C)OC1C1COC(C)(C)O1)O2 (stereo unspecified) | 1.79 µM (inactive) | 2.82 µM (inactive) | 2.4 µM (inactive) | 5.66 µM (inactive) | 1.49 µM (inactive) | 1.51 µM (inactive) | 11.9 µM (inactive) | 8.17 µM (inactive) | 13.8 µM (inactive) | 2.26 µM (inactive) | 8.69 µM (inactive) | 11 µM (inactive) | 14.5 µM (inactive) | 20 µM (inactive) | 0.386 µM (active) | 1.44 µM (inactive) | 0.731 µM (active) | 4.18 µM (inactive) | 2.54 µM (inactive) | – |
| CN(C)CCN(C)CC1COC(C)(C)O1 (stereo unspecified) | > 100 µM (inactive) | > 100 µM (inactive) | > 100 µM (inactive) | > 100 µM (inactive) | > 100 µM (inactive) | > 100 µM (inactive) | > 100 µM (inactive) | > 100 µM (inactive) | > 100 µM (inactive) | > 100 µM (inactive) | > 100 µM (inactive) | > 100 µM (inactive) | > 100 µM (inactive) | > 100 µM (inactive) | > 100 µM (inactive) | > 100 µM (inactive) | > 100 µM (inactive) | – | – | – |
| O=C1c2ccccc2C(=O)c2sc(Nc3ccccc3Cl)nc21 | 3.93 µM (inactive) | 5.87 µM (inactive) | 5.68 µM (inactive) | 15.8 µM (inactive) | 2.6 µM (inactive) | 4.68 µM (inactive) | 14.5 µM (inactive) | 8.18 µM (inactive) | 14.3 µM (inactive) | 4.15 µM (inactive) | 10.7 µM (inactive) | 19.5 µM (inactive) | 13.6 µM (inactive) | 16.7 µM (inactive) | 2.75 µM (inactive) | 2.8 µM (inactive) | 3.69 µM (inactive) | 11.1 µM (inactive) | 14.3 µM (inactive) | – |
| CC1CN1C(=O)NCCCCCCNC(=O)N1CC1C (stereo unspecified) | 15.5 µM (inactive) | > 100 µM (inactive) | 9.53 µM (inactive) | 35 µM (inactive) | 34.3 µM (inactive) | > 100 µM (inactive) | > 86.7 µM (inactive) | > 100 µM (inactive) | > 100 µM (inactive) | > 100 µM (inactive) | > 100 µM (inactive) | 66.5 µM (inactive) | 62.7 µM (inactive) | 30.2 µM (inactive) | 14.7 µM (inactive) | > 97.5 µM (inactive) | > 100 µM (inactive) | > 100 µM (inactive) | 70.3 µM (inactive) | 78.7 µM (inactive) |
| Cc1cccc(NC(=O)C(=O)Cc2nc3ccccc3nc2O)c1C | – | > 100 µM (inactive) | > 100 µM (inactive) | > 100 µM (inactive) | > 100 µM (inactive) | > 100 µM (inactive) | > 100 µM (inactive) | > 100 µM (inactive) | > 100 µM (inactive) | > 100 µM (inactive) | > 100 µM (inactive) | > 100 µM (inactive) | 84.9 µM (inactive) | > 100 µM (inactive) | > 100 µM (inactive) | > 100 µM (inactive) | > 100 µM (inactive) | – | – | – |
| CN(C)CCNc1ccc(CO)c2sc3ccc(O)cc3c(=O)c12 | 0.0262 µM (active) | 1.29 µM (inactive) | 0.351 µM (active) | 0.459 µM (active) | 1.11 µM (active) | 3.52 µM (inactive) | 2.46 µM (inactive) | 4.63 µM (inactive) | 5.13 µM (inactive) | 1.17 µM (inactive) | 10.6 µM (inactive) | 1.76 µM (inactive) | 2.42 µM (inactive) | 0.204 µM (active) | 0.171 µM (active) | 2.06 µM (inactive) | 1.32 µM (inactive) | – | – | 3.28 µM (inactive) |
